Laboratory results from ChEMBL document CHEMBL3779792, “Anti-proliferative evaluation of monoterpene derivatives against leukemia” (Eur J Med Chem, 2016).
Active and inactive are the calls of the source. The rule behind the calls is not given here.

Tested on: Raji
Test: Cytotoxicity against human Raji cells after 72 hrs by Cell-Titer Glo assay
Type: functional, cell-based
Settings: not given
With `C=C[C@@](C)(/C=C/c1ccc(O)c(/C=C/C(=O)NCc2ccc(C(F)(F)F)cc2)c1)CCC=C(C)C` the EC50 was greater than 26 µM. `CCOC(=O)/C=C/c1cc(/C=C/[C@](C)(/C=C/c2ccc(OC)cc2)CCC=C(C)C)ccc1O` gave an EC50 greater than 26 µM. In the case of `C=C[C@@](C)(/C=C/c1ccc(O)cc1)CC/C=C(\C)C(=O)OCC`, the EC50 is reported as greater than 26 µM. In the case of `C=C[C@@](C)(/C=C/c1ccc(O)cc1)CCCO`, the EC50 is reported as greater than 26 µM. Compound `C=C[C@@](C)(/C=C/c1ccc(O)cc1)CC/C=C(C)/C=N/N` has an EC50 greater than 26 µM. With `C=C[C@@](C)(/C=C/c1ccc(O)cc1)CC/C=C(\C)CO` the EC50 was greater than 26 µM. For `COc1ccc(/C=C/[C@@](C)(/C=C/c2ccc(O)c(/C=C/C(=O)c3ccccc3)c2)CCC=C(C)C)cc1`, the EC50 was greater than 26 µM.

Tested on: HEK293
Test: Cytotoxicity against HEK293 cells after 72 hrs by Cell-Titer Glo assay
Type: cell-based
Settings: Homo sapiens, HEK293, 72 h
Work on `C=C[C@@](C)(/C=C/c1ccc(O)c(/C=C/C(=O)NCc2ccc(C(F)(F)F)cc2)c1)CCC=C(C)C` yielded an EC50 greater than 36.6 µM. Compound `CCOC(=O)/C=C/c1cc(/C=C/[C@](C)(/C=C/c2ccc(OC)cc2)CCC=C(C)C)ccc1O` has an EC50 greater than 36.6 µM. `C=C[C@@](C)(/C=C/c1ccc(O)cc1)CC/C=C(\C)C(=O)OCC` gave an EC50 greater than 36.6 µM. In the case of `C=C[C@@](C)(/C=C/c1ccc(O)cc1)CCCO`, the EC50 is reported as greater than 36.6 µM. Compound `C=C[C@@](C)(/C=C/c1ccc(O)cc1)CC/C=C(C)/C=N/N` has an EC50 greater than 36.6 µM. `C=C[C@@](C)(/C=C/c1ccc(O)cc1)CC/C=C(\C)CO` gave an EC50 greater than 36.6 µM. `COc1ccc(/C=C/[C@@](C)(/C=C/c2ccc(O)c(/C=C/C(=O)c3ccccc3)c2)CCC=C(C)C)cc1` gave an EC50 greater than 36.6 µM.

Tested on: SEM cells
Test: Effect on cell cycle in human SEM cells assessed as accumulation at G0/G1 phase at 1 uM after 24 hrs by propidium iodide staining based flow cytometry analysis (reference value: 45.75%)
Type: functional
Settings: not given
With `CN[C@@H]1C[C@H]2O[C@@](C)([C@@H]1OC)n1c3ccccc3c3c4c(c5c6ccccc6n2c5c31)C(=O)NC4` [STAUROSPORINE] the Activity was 100%.

Tested on: BJ
Test: Cytotoxicity against human BJ cells after 72 hrs by Cell-Titer Glo assay
Type: cell-based
Settings: not given
`C=C[C@@](C)(/C=C/c1ccc(O)c(/C=C/C(=O)NCc2ccc(C(F)(F)F)cc2)c1)CCC=C(C)C` showed an EC50 greater than 36.6 µM. `CCOC(=O)/C=C/c1cc(/C=C/[C@](C)(/C=C/c2ccc(OC)cc2)CCC=C(C)C)ccc1O` showed an EC50 greater than 36.6 µM. With `C=C[C@@](C)(/C=C/c1ccc(O)cc1)CC/C=C(\C)C(=O)OCC` the EC50 was greater than 36.6 µM. With `C=C[C@@](C)(/C=C/c1ccc(O)cc1)CCCO` the EC50 was greater than 36.6 µM. For `C=C[C@@](C)(/C=C/c1ccc(O)cc1)CC/C=C(C)/C=N/N`, the EC50 was greater than 36.6 µM. Compound `C=C[C@@](C)(/C=C/c1ccc(O)cc1)CC/C=C(\C)CO` has an EC50 greater than 36.6 µM. For `COc1ccc(/C=C/[C@@](C)(/C=C/c2ccc(O)c(/C=C/C(=O)c3ccccc3)c2)CCC=C(C)C)cc1`, the EC50 was greater than 36.6 µM.

Tested on: SEM cells
Test: Induction of apoptosis in human SEM cells assessed as viable cells at 1 uM measured after 24 hrs by annexin V-propidium iodide staining based flow cytometric analysis (reference value: 1.5%)
Type: functional
Settings: read-out: Activity
With `CN[C@@H]1C[C@H]2O[C@@](C)([C@@H]1OC)n1c3ccccc3c3c4c(c5c6ccccc6n2c5c31)C(=O)NC4` [STAUROSPORINE] the viability at 1 µM was 5.5%.

Tested on: not listed separately
Test: Cytotoxicity in human SEM cells assessed as cell death at 1 uM after 24 hrs
Type: cell-based
Settings: not given
For `CN[C@@H]1C[C@H]2O[C@@](C)([C@@H]1OC)n1c3ccccc3c3c4c(c5c6ccccc6n2c5c31)C(=O)NC4` [STAUROSPORINE], the Activity was “Toxic”.

Tested on: not listed separately
Test: Cytotoxicity against human NALM6 cells after 72 hrs by Cell-Titer Glo assay
Type: functional, cell-based
Settings: NALM-6, 72 h
`C=C[C@@](C)(/C=C/c1ccc(O)c(/C=C/C(=O)NCc2ccc(C(F)(F)F)cc2)c1)CCC=C(C)C` gave an EC50 greater than 43.5 µM. Compound `CCOC(=O)/C=C/c1cc(/C=C/[C@](C)(/C=C/c2ccc(OC)cc2)CCC=C(C)C)ccc1O` has an EC50 greater than 43.5 µM. Work on `C=C[C@@](C)(/C=C/c1ccc(O)cc1)CC/C=C(\C)C(=O)OCC` yielded an EC50 greater than 43.5 µM. `C=C[C@@](C)(/C=C/c1ccc(O)cc1)CCCO` showed an EC50 greater than 43.5 µM. Compound `C=C[C@@](C)(/C=C/c1ccc(O)cc1)CC/C=C(C)/C=N/N` has an EC50 greater than 43.5 µM. Work on `C=C[C@@](C)(/C=C/c1ccc(O)cc1)CC/C=C(\C)CO` yielded an EC50 greater than 43.5 µM. Work on `COc1ccc(/C=C/[C@@](C)(/C=C/c2ccc(O)c(/C=C/C(=O)c3ccccc3)c2)CCC=C(C)C)cc1` yielded an EC50 greater than 43.5 µM.

Tested on: NALM-6
Test: Induction of apoptosis in human NALM6 cells assessed as necrotic cells at 0.5 uM measured after 24 hrs by annexin V-propidium iodide staining based flow cytometric analysis (reference value: 0.0%)
Type: functional
Settings: not given
Work on `CN[C@@H]1C[C@H]2O[C@@](C)([C@@H]1OC)n1c3ccccc3c3c4c(c5c6ccccc6n2c5c31)C(=O)NC4` [STAUROSPORINE] yielded an Activity of 0%.

Tested on: NALM-6
Test: Induction of apoptosis in human NALM6 cells assessed as cleaved PARP level at 0.5 uM measured after 3 and 6 hrs by immunoblot analysis
Type: functional, cell-based
Settings: not given
In the case of `CN[C@@H]1C[C@H]2O[C@@](C)([C@@H]1OC)n1c3ccccc3c3c4c(c5c6ccccc6n2c5c31)C(=O)NC4` [STAUROSPORINE], the Activity is reported as “Active”.

Tested on: SEM cells
Test: Induction of apoptosis in human SEM cells assessed as activated caspase3 levels at 0.5 uM after 6 hrs by immunoblot analysis
Type: functional, cell-based
Settings: not given
In the case of `CN[C@@H]1C[C@H]2O[C@@](C)([C@@H]1OC)n1c3ccccc3c3c4c(c5c6ccccc6n2c5c31)C(=O)NC4` [STAUROSPORINE], the Activity is reported as “Active”.

Tested on: NALM-6
Test: Induction of apoptosis in human NALM6 cells assessed as early apoptotic cells at 0.5 uM measured after 24 hrs by annexin V-propidium iodide staining based flow cytometric analysis (reference value: 91.5%)
Type: functional
Settings: not given
With `CN[C@@H]1C[C@H]2O[C@@](C)([C@@H]1OC)n1c3ccccc3c3c4c(c5c6ccccc6n2c5c31)C(=O)NC4` [STAUROSPORINE] the Activity was 49%.

Tested on: SEM cells
Test: Induction of apoptosis in human SEM cells assessed as early apoptotic cells at 1 uM measured after 24 hrs by annexin V-propidium iodide staining based flow cytometric analysis (reference value: 85.3%)
Type: functional
Settings: not given
Work on `CN[C@@H]1C[C@H]2O[C@@](C)([C@@H]1OC)n1c3ccccc3c3c4c(c5c6ccccc6n2c5c31)C(=O)NC4` [STAUROSPORINE] yielded an Activity of 2.6%.

Tested on: SEM cells
Test: Induction of apoptosis in human SEM cells assessed as late apoptotic cells at 1 uM measured after 24 hrs by annexin V-propidium iodide staining based flow cytometric analysis (reference value: 7.2%)
Type: functional
Settings: not given
Compound `CN[C@@H]1C[C@H]2O[C@@](C)([C@@H]1OC)n1c3ccccc3c3c4c(c5c6ccccc6n2c5c31)C(=O)NC4` [STAUROSPORINE] has an Activity of 85.3%.

Tested on: NALM-6
Test: Induction of apoptosis in human NALM6 cells assessed as activated caspase3 level at 0.5 uM after 3 hrs by immunoblot analysis
Type: functional, cell-based
Settings: not given
With `CN[C@@H]1C[C@H]2O[C@@](C)([C@@H]1OC)n1c3ccccc3c3c4c(c5c6ccccc6n2c5c31)C(=O)NC4` [STAUROSPORINE] the Activity was “Active”.

Tested on: Jurkat
Test: Cytotoxicity against human Jurkat cells after 72 hrs by Cell-Titer Glo assay
Type: functional, cell-based
Settings: not given
Compound `C=C[C@@](C)(/C=C/c1ccc(O)c(/C=C/C(=O)NCc2ccc(C(F)(F)F)cc2)c1)CCC=C(C)C` has an EC50 greater than 49 µM. In the case of `CCOC(=O)/C=C/c1cc(/C=C/[C@](C)(/C=C/c2ccc(OC)cc2)CCC=C(C)C)ccc1O`, the EC50 is reported as greater than 49 µM. With `C=C[C@@](C)(/C=C/c1ccc(O)cc1)CC/C=C(\C)C(=O)OCC` the EC50 was greater than 49 µM. Work on `C=C[C@@](C)(/C=C/c1ccc(O)cc1)CCCO` yielded an EC50 greater than 49 µM. For `C=C[C@@](C)(/C=C/c1ccc(O)cc1)CC/C=C(C)/C=N/N`, the EC50 was greater than 49 µM. Compound `C=C[C@@](C)(/C=C/c1ccc(O)cc1)CC/C=C(\C)CO` has an EC50 greater than 49 µM. `COc1ccc(/C=C/[C@@](C)(/C=C/c2ccc(O)c(/C=C/C(=O)c3ccccc3)c2)CCC=C(C)C)cc1` gave an EC50 greater than 49 µM.

Tested on: not listed separately
Test: Cytotoxicity against human SEM cells after 72 hrs by Cell-Titer Glo assay
Type: functional, cell-based
Settings: not given
For `C=C[C@@](C)(/C=C/c1ccc(O)c(/C=C/C(=O)NCc2ccc(C(F)(F)F)cc2)c1)CCC=C(C)C`, the EC50 was greater than 36.6 µM. `CCOC(=O)/C=C/c1cc(/C=C/[C@](C)(/C=C/c2ccc(OC)cc2)CCC=C(C)C)ccc1O` gave an EC50 greater than 36.6 µM. Work on `C=C[C@@](C)(/C=C/c1ccc(O)cc1)CC/C=C(\C)C(=O)OCC` yielded an EC50 greater than 36.6 µM. In the case of `C=C[C@@](C)(/C=C/c1ccc(O)cc1)CCCO`, the EC50 is reported as greater than 36.6 µM. Work on `C=C[C@@](C)(/C=C/c1ccc(O)cc1)CC/C=C(C)/C=N/N` yielded an EC50 greater than 36.6 µM. For `C=C[C@@](C)(/C=C/c1ccc(O)cc1)CC/C=C(\C)CO`, the EC50 was greater than 36.6 µM. In the case of `COc1ccc(/C=C/[C@@](C)(/C=C/c2ccc(O)c(/C=C/C(=O)c3ccccc3)c2)CCC=C(C)C)cc1`, the EC50 is reported as 30 µM.

Tested on: NALM-6
Test: Induction of apoptosis in human NALM6 cells assessed as cleaved PARP level at 0.5 uM measured after 12 hrs by immunoblot analysis
Type: functional, cell-based
Settings: not given
For `CN[C@@H]1C[C@H]2O[C@@](C)([C@@H]1OC)n1c3ccccc3c3c4c(c5c6ccccc6n2c5c31)C(=O)NC4` [STAUROSPORINE], the Activity was “Active”.

Tested on: NALM-6
Test: Induction of apoptosis in human NALM6 cells assessed as late apoptotic cells at 0.5 uM measured after 24 hrs by annexin V-propidium iodide staining based flow cytometric analysis (reference value: 4.3%)
Type: functional
Settings: not given
Work on `CN[C@@H]1C[C@H]2O[C@@](C)([C@@H]1OC)n1c3ccccc3c3c4c(c5c6ccccc6n2c5c31)C(=O)NC4` [STAUROSPORINE] yielded an Activity of 25%.

Tested on: HepG2
Test: Cytotoxicity against human HepG2 cells after 72 hrs by Cell-Titer Glo assay
Type: functional, cell-based
Settings: HepG2, 72 h
Compound `C=C[C@@](C)(/C=C/c1ccc(O)c(/C=C/C(=O)NCc2ccc(C(F)(F)F)cc2)c1)CCC=C(C)C` has an EC50 greater than 52.1 µM. Work on `CCOC(=O)/C=C/c1cc(/C=C/[C@](C)(/C=C/c2ccc(OC)cc2)CCC=C(C)C)ccc1O` yielded an EC50 greater than 52.1 µM. For `C=C[C@@](C)(/C=C/c1ccc(O)cc1)CC/C=C(\C)C(=O)OCC`, the EC50 was greater than 52.1 µM. `C=C[C@@](C)(/C=C/c1ccc(O)cc1)CCCO` gave an EC50 greater than 52.1 µM. In the case of `C=C[C@@](C)(/C=C/c1ccc(O)cc1)CC/C=C(C)/C=N/N`, the EC50 is reported as greater than 52.1 µM. `C=C[C@@](C)(/C=C/c1ccc(O)cc1)CC/C=C(\C)CO` gave an EC50 greater than 52.1 µM. Compound `COc1ccc(/C=C/[C@@](C)(/C=C/c2ccc(O)c(/C=C/C(=O)c3ccccc3)c2)CCC=C(C)C)cc1` has an EC50 greater than 52.1 µM.

Tested on: SEM cells
Test: Induction of apoptosis in human SEM cells assessed as necrotic cells at 1 uM measured after 24 hrs by annexin V-propidium iodide staining based flow cytometric analysis (reference value: 0.0%)
Type: functional
Settings: not given
Compound `CN[C@@H]1C[C@H]2O[C@@](C)([C@@H]1OC)n1c3ccccc3c3c4c(c5c6ccccc6n2c5c31)C(=O)NC4` [STAUROSPORINE] has an Activity of 0%.
